The test system of this assay is skeletal muscle. Nature of the assay: Fractional breakdown rate (FBR) of skeletal muscle, 3-methylhistidine, Example 2 part two. The class given is in vivo, dog. Conditions: for FBR: run, muscle samples. The text has this:
Twenty-six Labrador Retrievers ranging in age from 1.5 to 4.5 years were chosen from part one of the study and were fed for an additional 60 days following the termination of part one of the study. Test dogs remained in their previous treatment groups. Measurements on Actical movements/kg BW/mile endurance runs obtained during part one of the study were utilized to ensure that both the control and the L-carnitine groups were equal for performance potential. The lean body mass of the test dogs was determined by scanning with the DEXA as an additional measure for ensuring equal groups. Twelve dogs (6 males and 6 females) were assigned to each treatment group. Two additional dogs (1 male and 1 female) were fed the low carnitine basal diet of the control group and were used as controls that were not enriched with isotopes during the study; these two control dogs were used to measure the natural amount of 15N Phe in the sample. During the 60 day trial, the test dogs were fed low-carnitine basal diets with or without L-carnitine supplementation in a manner analogous to that of part one of the study. For three days prior to the final muscle biopsy and blood collection, all test dogs were feed an “all vegetarian plus egg” diet from Purina LabDiet that had nutrient specifications that were equivalent to that of the low carnitine basal diet. […] At the end of the 60 day training program, 24 of the dogs (12 resting and 12 running) were infused with a bolus dose of 15N Phe. […] Forty-five minutes after infusion, a 5 mm Bergstrom muscle biopsy needle was used to take a biopsy of the biceps femoris muscle. The muscle samples were quickly frozen in liquid nitrogen and placed in a −80° C. freezer for later analysis]. Twenty-four hours after the resting dogs were infused with 15N Phe, the remaining 12 dogs (6 non-carnitine; 3 male and 3 female and 6 L-carnitine; 3 male and 3 female) were run for a 15 mile endurance run. Following a 30 minute period of measured physiological recovery (heart rate and body temperature), test dogs that completed the 15 mile run were infused with a 2% 15N Phe solution as described above; muscle biopsies were taken 45 minutes after infusion. Blood samples were taken from the carotid artery for each test dog and analyzed for 3 MH. Three days prior to taking the blood samples, the dogs were fed the “all vegetable plus egg” non-meat diet from Purina LabDiet to ensure that the 3 MH found in the blood represented the skeletal muscle protein breakdown. To process the samples, the acid-soluble fraction containing free amino acids was removed by addition of 2% (w/v) perchloric acid. After homogenization, samples were centrifuged at 3,000×g, and the supernatant, containing free amino acids, was removed. The protein precipitate was washed three times with 2% perchloric acid before being hydrolyzed in 6N HCL. The supernatant and precipitate, respectively, were then run through an ion-exchange column packed with Dowex 50WX8-200. Phenylalanine and 3-methylhistidine (3-MH) were eluted with 2 mL of 4N NH4OH and 1 mL of nanopure H2O into a new vial and then dried under vacuum. The tert-butyldimethylsilyl (tBDMS) derivative was formed by adding 800 μL of C2CH3CN-MTBSTFA (1:1) and incubating at 110° C. for 60 minutes. The same mass spectrometer was used to determine 3-MH. […] The 238 m/z fragment of 3-MH was monitored. The muscle samples were analyzed for the fractional breakdown rate (FBR). FBR was calculated as kd=3-MH daily excretion/3-MH muscle pool×100. […]

Marks after values point to notes of the source that are not given here.

Take `C[N+](C)(C)C[C@H](O)CC(=O)[O-]` [L-carnitine]: the “Fractional Breakdown Rate (FBR) of muscle samples” value (Ex.2 part two, 250 mg/d, adjusted for gender and exercise state) worked out at 1.92%. Moreover, the “FBR (% protein breakdown rate/day) of skeletal muscle” value (Ex.2 part two, 250 mg/d, exercised females (15 mile endurance run)) was 3.26%. Where the note is “Ex.2 part two, 250 mg/d, running males”, the “FBR of skeletal proteins” value is 1.26%. For the same molecule, the FBR is recorded as 3.26^a % (Female) and 1.26^a % (Male).

These data come from patent US10016382B2, “Method for decreasing skeletal muscle damage and/or oxidative stress in mammals” (LONZA INC., priority 2014, dated 2018).
